# Experiments:
# [1] = tested on: healthy male adult volunteers; test: Phase I study, single oral administration: sweating; format: in vivo, human; settings: for Sweating (number of subjects with the symptom): healthy male adult volunteers, 6 subjects
# Method: (§1) The compound A was orally administered once to healthy male adult volunteers, and saliva secretion action and pharmacokinetics were evaluated.
# (§2) Drug administration to the volunteers was carried out by a blind method.
# (§3) In order to observe the volunteers carefully, saliva quantity, sweating and pharmacokinetics (concentrations of unchanged compound A in plasma and urine) were periodically measured.
# [2] = tested on: healthy male adult volunteers; test: Phase I study, single oral administration: saliva secretion; format: in vivo, human; settings: for Increase of saliva secretion (number of subjects with the symptom): healthy male adult volunteers, 6 subjects
# Method: as §1, §2, §3
# [3] = Calculation of plasma concentration under stationary state (Css) and PT ratio from phase I data; set-up: species or system human; settings: for concentration in plasma under stationary state (Css): calculated from AUC and T1/2 at 20 mg; for PT ratio (Cmax/Cmin): calculated
# From the text: As described in the above, in order to increase secretion of salivary and tear fluid and to obtain effect of salivary gland and lacrimal gland cell growth, more sufficiently than usual, it is desirable to control drug release per unit hour of the compound A from a sustained release pharmaceutical preparation, and essentially, it is ideal to keep its effective concentration in human plasma for a predetermined period of time. The effective concentration of compound A in plasma under stationary state can be calculated using the AUC and disappearing half life obtained in the human clinical test, the aforementioned drug release per unit hour, distribution volume, disappearing rate constant and the like pharmacokinetic parameters.
# An example of the method for calculating its concentration in plasma under stationary state (Css) is shown in the following.
# They were 86.9, 172, 1380 and 2758 ng/ml. Though there is a possibility that it varies depending on the influences of specific difference, individual difference and the like various factors, when an example is cited, effective concentration of the compound A in plasma is 35 ng/ml in a lower case, based on the aforementioned calculation result and from the aforementioned valued calculated from Tables 7 and 8. This is preferably 50 ng/ml, more preferably 87 ng/ml, and further more preferably 170 ng/ml.
# In addition, it is desirable to control a PT ratio (Cmax/Cmin) which is the ratio of maximum concentration of the compound A in plasma (Cmax) to its minimum concentration in plasma (Cmin). It is possible to calculate the PT ratio from Tmax and T1/2, and the calculation is carried out in the following manner.
# This value means that the hour of T1/2 passed 5.5 times after Tmax, and (½)^5.5=1/45. Thus, the PT ratio becomes 45.
# Also, when supposed as twice a day administration, (12−2)/4=2.5. In the same manner as in the above, (½)^2.5=1/5.7. Thus, the PT ratio is 5.7. In addition, when the same calculation is carried out based on the minimum value 3.4 h of T1/2 (showing the effect without perspiration),
# [4] = phase I study, oral administration
smiles,measurement,setting,value
"C=C1CC2(CCN(C)CC2)O[C@H]1C [compound A, (−)-(S)-2,8-dimethyl-3-methylene-1-oxa-8-azaspiro[4.5]decane]",Sweating (number of subjects with the symptom),[1]; single oral 5 mg,0
same,Sweating (number of subjects with the symptom),[1]; single oral 10 mg,1
same,Sweating (number of subjects with the symptom),[1]; single oral 20 mg,0
same,Sweating (number of subjects with the symptom),[1]; single oral 40 mg,0
same,Sweating (number of subjects with the symptom),[1]; single oral 60 mg,5
same,dose at which a side effect was found,[1]; human clinical test,60 mg/individual
same,dose at which a side effect was not found,[1]; human clinical test,40 mg/individual
same,maximum dose (single administration) by which sweating was not observed but the beneficial effect was observed,[1]; [4],40 mg
same,Increase of saliva secretion (number of subjects with the symptom),[2]; single oral 5 mg,0
same,Increase of saliva secretion (number of subjects with the symptom),[2]; single oral 10 mg,2
same,Increase of saliva secretion (number of subjects with the symptom),[2]; single oral 20 mg,2
same,Increase of saliva secretion (number of subjects with the symptom),[2]; single oral 60 mg,5
same,minimum dose by which increase of the salivary fluid secretion was observed,[2]; [4],10 mg
same,concentration in plasma under stationary state (Css),[3]; release rate R=4.2 mg/h,86.9 ng/mL
same,concentration in plasma under stationary state (Css),[3]; release rate R=8.3 mg/h,172 ng/mL
same,concentration in plasma under stationary state (Css),[3]; release rate R=66.7 mg/h,1380 ng/mL
same,concentration in plasma under stationary state (Css),[3]; release rate R=133.3 mg/h,2758 ng/mL
same,PT ratio (Cmax/Cmin),"[3]; once a day administration, T1/2 3.4 h",90.5
same,PT ratio (Cmax/Cmin),"[3]; once a day administration, Tmax 2, T1/2 4",45
same,PT ratio (Cmax/Cmin),"[3]; twice a day administration, T1/2 3.4 h",7.5
same,PT ratio (Cmax/Cmin),"[3]; twice a day administration, Tmax 2, T1/2 4",5.7

# — US20080131511A1, “Pharmaceutical Composition for Treatment of Tear and Salivary Fluid Drying” (Astellas Pharma, Inc., priority 2004, published 2008)
